According to patent US10800752B2, “Substituted naphtho[2,3-b]furans as water-soluble prodrugs for preventing and/or treating cancer” (BOSTON BIOMEDICAL, INC., priority 2015, dated 2020):
Where a name gives a salt, the structure may show the parent alone.

Tests used:
[1] = Evaluation of a conversion rate to 2-acetylnaphtho[2,3-b]furan-4,9-dione in pH 7.4 phosphate buffer solution; format: physicochemical; conditions: 1 umol/L, 37° C.; for % Measurement value of Activated form (conversion rate to 2-acetylnaphtho[2,3-b]furan-4,9-dione): formed from Example 6, phosphate buffer solution (pH 7.4); for % Measurement value (conversion rate to 2-acetylnaphtho[2,3-b]furan-4,9-dione): Phosphate buffer solution (pH 7.4)
Description: (§1) For test compounds, the decrease rate of the test compounds and the conversion rate thereof to 2-acetylnaphtho[2,3-b]furan-4,9-dione in human plasma, CD1 mouse plasma, and pH 7.4 phosphate buffer solution were measured.
(§2) Test compounds were incubated at the concentration of 1 umol/L in human plasma (cat. no. 12250210, COSMO BIO), CD1 mouse plasma (cat. no. AP3054, KAC), and phosphate buffer solution at 37° C., and removed at predetermined times (0, 5, 10, 30, 60, and 120 minutes). After protein-removing treatment was performed, they are analyzed with LC-MS. It should be noted that the protein-removing treatment used acetonitrile containing: 10% volume of 1 mol/L hydrochloric acid; 1% volume of 46% citric acid; and phenytoin as an internal standard.
(§3) The measurement condition of LC-MS is as described below. LC-MS condition column: Kinetex 2.6 u PFP 100 A 50×2.1 mm Column temperature: 40° C.
(§4) Mobile phase: A: 0.1% formic acid-containing water
(§5) • B: 0.1% formic acid-containing acetonitrile A/B(min): 95/5(0)→5/95(3)→5/95(4)→95/5(4.1)→95/5(6) Flow rate: 0.4 mL/min Detection: ESI (positive mode) Injection volume: 10 uL
(§6) Measurement values are calculated from the peak area ratio in LC-MS between an internal standard material, phenytoin and an active form, 2-acetylnaphtho[2,3-b]furan-4,9-dione, and are expressed in %.
(§7) In the same way as Example 6, the incubation time was set as 120 minutes later, and the conversion rate of each of various test compounds to 2-acetylnaphtho[2,3-b]furan-4,9-dione in human plasma, CD1 mouse plasma, and pH 7.4 phosphate buffer solution was measured. A series of the present compounds were confirmed to be converted to 2-acetylnaphtho[2,3-b]furan-4,9-dione in pH 7.4 phosphate buffer solution in addition to human plasma and CD1 mouse plasma. Therefore, a series of the test compounds of the present invention were confirmed to be converted to the activated form via a route other than an enzymatic conversion.

[2] = Evaluation of a conversion rate to 2-acetylnaphtho[2,3-b]furan-4,9-dione in human plasma; format: in vitro ADME; conditions: 1 umol/L
Description: as §1, §2, §3, §4, §5
In the same way as Example 6, the incubation time was set as 120 minutes later, and the conversion rate of each of various test compounds to 2-acetylnaphtho[2,3-b]furan-4,9-dione in human plasma, CD1 mouse plasma, and pH 7.4 phosphate buffer solution was measured.

[3] = Evaluation of a conversion rate to 2-acetylnaphtho[2,3-b]furan-4,9-dione in CD1 mouse plasma; format: in vitro ADME; conditions: 1 umol/L
Description: as §1, §2, §3, §4, §5, §6, §7

Solubility test = conditions: 50 mmol/L glycine buffer solution (pH 2.0), room temperature, 24 hours shaking
Description: A water-soluble prodrug was added into 50 mmol/L glycine buffer solution (pH 2.0). After shaking at room temperature for 24 hours, the mixture was filtered through a membrane filter, and then the filtrate was measured with HPLC.
The measurement condition of HPLC is as described below. HPLC condition column: Acquity UPLC BEH C18, 1.7 um, 50×2.1 mm
Mobile phase: A: 0.1% trifluoroacetic acid-containing water

[4] = Human plasma, 37° C., incubation time 120 min
[5] = CD1 mouse plasma, 37° C., incubation time 120 min

| Molecule | % Measurement value (conversion rate to 2-acetylnaphtho[2,3-b]furan-4,9-dione) ([1]; incubation time 120 min) [%] | % Measurement value (conversion rate to 2-acetylnaphtho[2,3-b]furan-4,9-dione) [2, 4] [%] | % Measurement value (conversion rate to 2-acetylnaphtho[2,3-b]furan-4,9-dione) [3, 5] [%] | Solubility in pH 2.0 buffer solution (Solubility test) [mg/mL] | other results |
| --- | --- | --- | --- | --- | --- |
| CC(=O)c1cc2c(o1)C(=O)c1ccccc1C2=O [Activated form, 2-acetylnaphtho[2,3-b]furan-4,9-dione, reference compound] |  |  |  |  | % Measurement value of Activated form (conversion rate to 2-acetylnaphtho[2,3-b]furan-4,9-dione) ([1]; incubation time 0 min): 0%; % Measurement value of Activated form (conversion rate to 2-acetylnaphtho[2,3-b]furan-4,9-dione) ([1]; incubation time 5 min): 20%; % Measurement value of Activated form (conversion rate to 2-acetylnaphtho[2,3-b]furan-4,9-dione) ([1]; incubation time 10 min): 29%; % Measurement value of Activated form (conversion rate to 2-acetylnaphtho[2,3-b]furan-4,9-dione) ([1]; incubation time 30 min): 55%; % Measurement value of Activated form (conversion rate to 2-acetylnaphtho[2,3-b]furan-4,9-dione) ([1]; incubation time 60 min): 61%; % Measurement value of Activated form (conversion rate to 2-acetylnaphtho[2,3-b]furan-4,9-dione) ([1]; incubation time 120 min): 78%; % Measurement value of Activated form (conversion rate to 2-acetylnaphtho[2,3-b]furan-4,9-dione) ([2]; human, 0 min): 0%; % Measurement value of Activated form (conversion rate to 2-acetylnaphtho[2,3-b]furan-4,9-dione) ([2]; human, 5 min): 24%; % Measurement value of Activated form (conversion rate to 2-acetylnaphtho[2,3-b]furan-4,9-dione) ([2]; human, 10 min): 31%; % Measurement value of Activated form (conversion rate to 2-acetylnaphtho[2,3-b]furan-4,9-dione) ([2]; human, 30 min): 48%; % Measurement value of Activated form (conversion rate to 2-acetylnaphtho[2,3-b]furan-4,9-dione) ([2]; human, 60 min): 64%; % Measurement value of Activated form (conversion rate to 2-acetylnaphtho[2,3-b]furan-4,9-dione) ([2]; human, 120 min): 71%; % Measurement value of Activated form (conversion rate to 2-acetylnaphtho[2,3-b]furan-4,9-dione) ([3]; CD1, mouse, 0 min): 0%; % Measurement value of Activated form (conversion rate to 2-acetylnaphtho[2,3-b]furan-4,9-dione) ([3]; CD1, mouse, 5 min): 23%; % Measurement value of Activated form (conversion rate to 2-acetylnaphtho[2,3-b]furan-4,9-dione) ([3]; CD1, mouse, 10 min): 31%; % Measurement value of Activated form (conversion rate to 2-acetylnaphtho[2,3-b]furan-4,9-dione) ([3]; CD1, mouse, 30 min): 63%; % Measurement value of Activated form (conversion rate to 2-acetylnaphtho[2,3-b]furan-4,9-dione) ([3]; CD1, mouse, 60 min): 67%; % Measurement value of Activated form (conversion rate to 2-acetylnaphtho[2,3-b]furan-4,9-dione) ([3]; CD1, mouse, 120 min): 76% |
| CC(=O)c1cc2c(OC(=O)NC3CCC(N)CC3)c3ccccc3c(OC(=O)NC3CCC(N)CC3)c2o1.Cl.Cl (stereo not shown) [Example 7] | 41 | 69 | 51 |  |  |
| CC(=O)c1cc2c(OC(=O)NC3CCNCC3)c3ccccc3c(OC(=O)NC3CCNCC3)c2o1.Cl.Cl [Example 8] | 49 | 79 | 79 |  |  |
| CC(=O)c1cc2c(OC(=O)NCCOCCN)c3ccccc3c(OC(=O)NCCOCCN)c2o1.Cl.Cl [Example 9] | 50 | 65 | 81 |  |  |
| CC(=O)c1cc2c(OC(=O)NC3CNC3)c3ccccc3c(OC(=O)NC3CNC3)c2o1.Cl.Cl [Example 10] | 58 | 89 | 59 | >5.0 |  |
| CC(=O)c1cc2c(OC(=O)NCC[C@H](N)C(=O)O)c3ccccc3c(OC(=O)NCC[C@H](N)C(=O)O)c2o1.Cl.Cl [Example 12] | 63 | 63 | 78 |  |  |
| CC(=O)c1cc2c(OC(=O)NCCCCN)c3ccccc3c(OC(=O)NCCCCN)c2o1.Cl.Cl [Example 13] | 13 | 95 | 50 |  |  |
| CC(=O)c1cc2c(OC(=O)NCCN)c3ccccc3c(O)c2o1.Cl [Example 18] | 80 | 81 | 73 |  |  |
| CC(=O)c1cc2c(OC(=O)OCCCCN)c3ccccc3c(OC(=O)OCCCCN)c2o1 [Example 21, 2-Acetylnaphtho[2,3-b]furan-4,9-diyl bis(4-aminobutyl)bis(carbonate)dihydrochloride] | 24 |  |  |  | % Measurement value (conversion rate to 2-acetylnaphtho[2,3-b]furan-4,9-dione) ([2]; human, 120 min): 40%; % Measurement value (conversion rate to 2-acetylnaphtho[2,3-b]furan-4,9-dione) ([3]; CD1, mouse, 120 min): 44% |
| CCNCCCCOC(=O)Oc1c2ccccc2c(OC(=O)OCCCCNCC)c2oc(C(C)=O)cc12.Cl.Cl [Example 28] | 34 | 73 | 85 |  |  |
| CC(=O)c1cc2c(O)c3ccccc3c(OC(=O)NCCNCCS(=O)(=O)N(C)C)c2o1.Cl [Example 79] | 39 | 71 |  | 0.3 |  |
| CC(=O)c1cc2c(O)c3ccccc3c(OC(=O)NCCCNCCS(=O)(=O)N(C)C)c2o1.Cl [Example 80] | 32 | 54 |  | 1.0 |  |
| CC(=O)c1cc2c(O)c3ccccc3c(OC(=O)NCCNCCS(C)(=O)=O)c2o1.Cl [Example 81] | 27 | 74 |  | 0.9 |  |
| CC(=O)c1cc2c(O)c3ccccc3c(OC(=O)NCCCNCCS(C)(=O)=O)c2o1.Cl [Example 82] | 25 | 74 |  | 0.1 |  |
| CC(=O)c1cc2c(O)c3ccccc3c(OC(=O)NCCCNCC(=O)NCC(=O)O)c2o1.Cl [Example 84] | 31 | 42 |  | >5.0 |  |
| CC(=O)c1cc2c(O)c3ccccc3c(OC(=O)NCCNCC(=O)N3CCC3)c2o1.Cl [Example 85] | 37 | 38 |  | 4.1 |  |
| CC(=O)c1cc2c(O)c3ccccc3c(OC(=O)NCCCNCC(=O)N3CCC3)c2o1.Cl [Example 86] | 38 | 55 |  | >5.0 |  |
| CC(=O)c1cc2c(O)c3ccccc3c(OC(=O)NCCNCCOC(N)=O)c2o1.Cl [Example 87] | 36 | 38 |  | 4.0 |  |
| CC(=O)c1cc2c(O)c3ccccc3c(OC(=O)NCCCNCCOC(N)=O)c2o1.Cl [Example 88] | 26 | 27 |  | 3.2 |  |
| COC(=O)NCCNCCNC(=O)Oc1c2ccccc2c(O)c2cc(C(C)=O)oc12.Cl [Example 89] | 58 | 63 |  | >5.0 |  |
| COC(=O)OCCNCCNC(=O)Oc1c2ccccc2c(O)c2cc(C(C)=O)oc12.Cl [Example 91] | 45 | 61 |  | 3.6 |  |
| COC(=O)OCCNCCCNC(=O)Oc1c2ccccc2c(O)c2cc(C(C)=O)oc12.Cl [Example 92] | 26 | 34 |  | >5.0 |  |
| Dimethyl 4,4′-((((2-acetylnaphtho[2,3-b]furan-4,9-diyl)bis(oxy))bis(carbonyl))bis-(azanediyl))(2S,2′S)-bis(2-aminobutanoate)dimethanesulfonate salt [Example 104] | 57 | 82 |  | >5.0 |  |
